The source of these data is patent US20130303509A1, “NAMPT INHIBITORS” (AbbVie Inc., priority 2012, published 2013).

This experiment concerns PC3 cells. The experiment in a line: NAMPT Cell Proliferation Assay. In kind it is cell-based. The settings on record: Homo sapiens, PC-3, 120 h, 5 days incubation, cell viability by Cell Titer Glo. Put shortly: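 Seeded at 500 cells/well in RPMI with 10% heat-inactivated FBS and left to attach overnight at 37° C, 5% CO2. Compounds were added as 10-fold dilutions […] for 5 days, then viability was read by CellTiter-Glo. IC50s came from sigmoidal fits of percent inhibition.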
A word on the IC50: it is the midpoint of a concentration-inhibition curve. For `CCOCC(=O)N1CCC(c2ccc(NC(=O)C3CN(c4cccnc4)C3)cc2)CC1` [Example 131, N-{4-[1-(ethoxyacetyl)piperidin-4-yl]phenyl}-1-(pyridin-3-yl)azetidine-3-carboxamide], the IC50 is 0.3 nM. `CC(C)(C)CC(=O)N1CCC(c2ccc(NC(=O)C3CN(c4cccnc4)C3)cc2)CC1` [Example 132, N-{4-[1-(3,3-dimethylbutanoyl)piperidin-4-yl]phenyl}-1-(pyridin-3-yl)azetidine-3-carboxamide] showed an IC50 of 0.23 nM. Regarding `CCC(C)(C)C(=O)N1CCC(c2ccc(NC(=O)C3CN(c4cccnc4)C3)cc2)CC1` [Example 133, N-{4-[1-(2,2-dimethylbutanoyl)piperidin-4-yl]phenyl}-1-(pyridin-3-yl)azetidine-3-carboxamide], the midpoint of inhibition, the IC50, lay at 0.62 nM.

Consider `CCCC(=O)N1CCC(c2ccc(NC(=O)C3CN(c4cccnc4)C3)cc2)CC1` [Example 134, N-[4-(1-butanoylpiperidin-4-yl)phenyl]-1-(pyridin-3-yl)azetidine-3-carboxamide], for which inhibition was half-maximal at 0.64 nM (IC50).

With `COCC(=O)N1CCC(c2ccc(NC(=O)C3CN(c4cccnc4)C3)cc2)CC1` [Example 135, N-{4-[1-(methoxyacetyl)piperidin-4-yl]phenyl}-1-(pyridin-3-yl)azetidine-3-carboxamide], it took 0.3 nM to reach half-maximal inhibition (IC50). In the case of `O=C(Nc1ccc(C2CCN(C(=O)C3CCCCC3)CC2)cc1)C1CN(c2cccnc2)C1` [Example 136, N-{4-[1-(cyclohexylcarbonyl)piperidin-4-yl]phenyl}-1-(pyridin-3-yl)azetidine-3-carboxamide], the half-inhibitory concentration (IC50) is 0.23 nM. The compound `CC(C)CC(=O)N1CCC(c2ccc(NC(=O)C3CN(c4cccnc4)C3)cc2)CC1` [Example 137, N-{4-[1-(3-methylbutanoyl)piperidin-4-yl]phenyl}-1-(pyridin-3-yl)azetidine-3-carboxamide] came in with an IC50 of 0.31 nM. In turn, `O=C(Nc1ccc(C2CCN(C(=O)C3CCCC3)CC2)cc1)C1CN(c2cccnc2)C1` [Example 138, N-{4-[1-(cyclopentylcarbonyl)piperidin-4-yl]phenyl}-1-(pyridin-3-yl)azetidine-3-carboxamide] registered an IC50 of 0.23 nM. `CC(C)C(C)C(=O)N1CCC(c2ccc(NC(=O)C3CN(c4cccnc4)C3)cc2)CC1` (stereo not shown) [Example 139, N-{4-[1-(2,3-dimethylbutanoyl)piperidin-4-yl]phenyl}-1-(pyridin-3-yl)azetidine-3-carboxamide] came in with a half-inhibitory concentration (IC50) of 0.18 nM. For the compound `CC(C)(C)CC(=O)N1CCC(c2ccc(NC(=O)C3CN(c4ccnnc4)C3)cc2)CC1` [Example 140, N-{4-[1-(3,3-dimethylbutanoyl)piperidin-4-yl]phenyl}-1-(pyridazin-4-yl)azetidine-3-carboxamide], the IC50 is 3.54 nM. As to `CC(C)(O)C(=O)N1CCC(c2ccc(NC(=O)[C@H]3CCN(c4ccnnc4)C3)cc2)CC1` [Example 141, (3S)—N-{4-[1-(2-hydroxy-2-methylpropanoyl)piperidin-4-yl]phenyl}-1-(pyridazin-4-yl)pyrrolidine-3-carboxamide], the IC50 came out at 834 nM. Regarding `O=C(Nc1ccc(C2CCN(C(=O)CC3CCCC3)CC2)cc1)[C@H]1CCN(c2ccnnc2)C1` [Example 142, (3S)—N-{4-[1-(cyclopentylacetyl)piperidin-4-yl]phenyl}-1-(pyridazin-4-yl)pyrrolidine-3-carboxamide], inhibition was half-maximal at 741 nM (IC50). As to `CC[C@H](C)C(=O)N1CCC(c2ccc(NC(=O)C3CN(c4ccnnc4)C3)cc2)CC1` [Example 143, N-(4-{1-[(2S)-2-methylbutanoyl]piperidin-4-yl}phenyl)-1-(pyridazin-4-yl)azetidine-3-carboxamide], the IC50 came to 4.96 nM. Next, `O=C(Nc1ccc(C2CCN(C(=O)CC3CCCC3)CC2)cc1)C1CN(c2ccnnc2)C1` [Example 144, N-{4-[1-(cyclopentylacetyl)piperidin-4-yl]phenyl}-1-(pyridazin-4-yl)azetidine-3-carboxamide]: 18.4 nM. `O=C(Nc1ccc(C2CCN(C(=O)CC3CCOCC3)CC2)cc1)C1CN(c2ccnnc2)C1` [Example 145, 1-(pyridazin-4-yl)-N-{4-[1-(tetrahydro-2H-pyran-4-ylacetyl)piperidin-4-yl]phenyl}azetidine-3-carboxamide] yielded an IC50 of 70.9 nM. In the case of `O=C(Nc1ccc(C2CCN(C(=O)C3CCOCC3)CC2)cc1)C1CN(c2ccnnc2)C1` [Example 146, 1-(pyridazin-4-yl)-N-{4-[1-(tetrahydro-2H-pyran-4-ylcarbonyl)piperidin-4-yl]phenyl}azetidine-3-carboxamide], 70.7 nM corresponded to half-maximal inhibition (IC50). `CC(C)C(=O)N1CCC(c2ccc(NC(=O)C3CN(c4cccnn4)C3)cc2)CC1` [Example 147, N-{4-[1-(2-methylpropanoyl)piperidin-4-yl]phenyl}-1-(pyridazin-3-yl)azetidine-3-carboxamide] returned an IC50 of 0.95 nM. Next, `CC(C)Cn1cc(-c2ccc(NC(=O)C3CN(c4ccnnc4)C3)cc2)cn1` [Example 148, N-{4-[1-(2-methylpropyl)-1H-pyrazol-4-yl]phenyl}-1-(pyridazin-4-yl)azetidine-3-carboxamide]: 76.1 nM; `Cc1ncccc1N1CC(C(=O)Nc2ccc(C3CCN(C(=O)c4ccccc4)CC3)cc2)C1` [Example 149, N-[4-(1-benzoylpiperidin-4-yl)phenyl]-1-(2-methylpyridin-3-yl)azetidine-3-carboxamide]: 58 nM; `Cc1ncccc1N1CC(C(=O)Nc2ccc(C3CCN(C(=O)c4ccccc4F)CC3)cc2)C1` [Example 150, N-{4-[1-(2-fluorobenzoyl)piperidin-4-yl]phenyl}-1-(2-methylpyridin-3-yl)azetidine-3-carboxamide]: 58.9 nM. The figure for `Cc1ncccc1N1CC(C(=O)Nc2ccc(C3CCN(C(=O)c4ccccc4Cl)CC3)cc2)C1` [Example 151, N-{4-[1-(2-chlorobenzoyl)piperidin-4-yl]phenyl}-1-(2-methylpyridin-3-yl)azetidine-3-carboxamide] is 60.9 nM. Compound `Cc1ncccc1N1CC(C(=O)Nc2ccc(C3CCN(C(=O)c4cccc(F)c4)CC3)cc2)C1` [Example 152, N-{4-[1-(3-fluorobenzoyl)piperidin-4-yl]phenyl}-1-(2-methylpyridin-3-yl)azetidine-3-carboxamide] showed an IC50 of 116 nM.

On to `Cc1ncccc1N1CC(C(=O)Nc2ccc(C3CCN(C(=O)c4cccc(Cl)c4)CC3)cc2)C1` [Example 153, N-{4-[1-(3-chlorobenzoyl)piperidin-4-yl]phenyl}-1-(2-methylpyridin-3-yl)azetidine-3-carboxamide], for which half-maximal inhibition (IC50) was put at 699 nM.

On to `Cc1ncccc1N1CC(C(=O)Nc2ccc(C3CCN(C(=O)c4cc(Cl)cc(Cl)c4)CC3)cc2)C1` [Example 154, N-{4-[1-(3,5-dichlorobenzoyl)piperidin-4-yl]phenyl}-1-(2-methylpyridin-3-yl)azetidine-3-carboxamide], for which the IC50 came out at 803 nM. The compound `Cc1ncccc1N1CC(C(=O)Nc2ccc(C3CCN(C(=O)c4ccc(F)cc4)CC3)cc2)C1` [Example 155, N-{4-[1-(4-fluorobenzoyl)piperidin-4-yl]phenyl}-1-(2-methylpyridin-3-yl)azetidine-3-carboxamide] showed a half-inhibitory concentration (IC50) of 701 nM. Turning to `Cc1ncccc1N1CC(C(=O)Nc2ccc(C3CCN(C(=O)c4ccc(Cl)cc4)CC3)cc2)C1` [Example 156, N-{4-[1-(4-chlorobenzoyl)piperidin-4-yl]phenyl}-1-(2-methylpyridin-3-yl)azetidine-3-carboxamide], half-maximal inhibition (IC50) was put at 712 nM. `Cc1ncccc1N1CC(C(=O)Nc2ccc(C3CCN(C(=O)c4ccc(C(F)(F)F)cc4)CC3)cc2)C1` [Example 157, 1-(2-methylpyridin-3-yl)-N-(4-{1-[4-(trifluoromethyl)benzoyl]piperidin-4-yl}phenyl)azetidine-3-carboxamide] registered an IC50 of 948 nM. As to `Cc1ncccc1N1CC(C(=O)Nc2ccc(C3CCN(C(=O)c4cccnn4)CC3)cc2)C1` [Example 158, 1-(2-methylpyridin-3-yl)-N-{4-[1-(pyridazin-3-ylcarbonyl)piperidin-4-yl]phenyl}azetidine-3-carboxamide], the IC50 is 1300 nM. Consider `CCCCC(=O)N1CCC(c2ccc(NC(=O)C3CN(c4cccnc4C)C3)cc2)CC1` [Example 159, 1-(2-methylpyridin-3-yl)-N-[4-(1-pentanoylpiperidin-4-yl)phenyl]azetidine-3-carboxamide], for which the IC50 is 182 nM. The figure for `CCC(C)CC(=O)N1CCC(c2ccc(NC(=O)C3CN(c4cccnc4C)C3)cc2)CC1` (stereo not shown) [Example 160, N-{4-[1-(3-methylpentanoyl)piperidin-4-yl]phenyl}-1-(2-methylpyridin-3-yl)azetidine-3-carboxamide] is 173 nM; for `Cc1ncccc1N1CC(C(=O)Nc2ccc(C3CCN(C(=O)CC4C[C@@H]5CC[C@H]4C5)CC3)cc2)C1` (stereo partly drawn) [Example 161, N-(4-{1-[(1S,4R)-bicyclo[2.2.1]hept-2-ylacetyl]piperidin-4-yl}phenyl)-1-(2-methylpyridin-3-yl)azetidine-3-carboxamide] it is 213 nM; for `Cc1ncccc1N1CC(C(=O)Nc2ccc(C3CCN(C(=O)CC4CCCC4)CC3)cc2)C1` [Example 162, N-{4-[1-(cyclopentylacetyl)piperidin-4-yl]phenyl}-1-(2-methylpyridin-3-yl)azetidine-3-carboxamide] it is 225 nM. `Cc1ncccc1N1CC(C(=O)Nc2ccc(C3CCN(C(=O)C4CC4C)CC3)cc2)C1` (stereo not shown) [Example 163, N-(4-{1-[(2-methylcyclopropyl)carbonyl]piperidin-4-yl}phenyl)-1-(2-methylpyridin-3-yl)azetidine-3-carboxamide] registered a concentration for half-maximal inhibition (IC50) of 120 nM.

On to `Cc1ncccc1N1CC(C(=O)Nc2ccc(C3CCN(C(=O)CN4CCOCC4)CC3)cc2)C1` [Example 164, 1-(2-methylpyridin-3-yl)-N-{4-[1-(morpholin-4-ylacetyl)piperidin-4-yl]phenyl}azetidine-3-carboxamide], for which the half-maximal inhibitory concentration (IC50) turned out to be 202 nM.
